Source: patent publication US20250230138A1, “COMPOUNDS HAVING A T-STRUCTURE FORMED BY AT LEAST FOUR CYCLES FOR USE IN THE TREATMENT OF CANCER AND OTHER INDICATIONS” (TheRas, Inc., priority 2022, published 2025)
Like-named read-outs stand apart in the source and are kept apart here.

Key:
[1] = target: Cys242 in human PIK3CA (157-299) (Homo sapiens (Human), UniProt P42336); assay: Covalent modification assay using MALDI-TOF MS; assay type: biochemical; conditions: 4 h reaction time point
Procedure: Matrix-Assisted Laser Desorption Ionization-Time of Flight Mass Spectrometry (MALDI-TOF MS) analysis of covalent modification of Cys242 in human PIK3CA (157-299) was performed.
Reaction: 3.33 μM or 1 μM of PIK3CA (157-299) protein (produced in-house by Protein Expression Laboratory, FNLCR/Leidos Biomed) in 20 mM HEPES buffer containing 150 mM NaCl, 2 mM MgCl2, pH 7.3 was prepared freshly before assay. Twelve-μL aliquots of protein were dispensed onto low volume 384-well plate, then 470 nL DMSO and 30 nL of tested compounds from 10 mM DMSO stocks were added to appropriate wells using ECHO 555 acoustic liquid handler (Labcyte Inc.). For each reaction/assay, three blanks were prepared by mixing 12 μL of protein solution with 500 nL DMSO. The wells content was carefully mixed by aspiration, and then the plate was sealed by an adhesive cover, centrifuged at 931 g for 1 minute, and kept in the dark at room temperature until 15 min, 30 min, 2 h, or 4 h collections.
Targetpretreatment: Before each assay MALDI target (Bruker MPT 384 ground steel BC) was pre-treated by pipetting on each spot 0.75 μL of saturated sinapinic acid in acetonitrile (ACN).
Sample preparation: At collection time point, 2 μL of reaction mixtures were pipetted out into […] MALDI matrix solution (saturated solution of sinapinic acid in 1:1 ACN:water solution containing 0.15% trifluoroacetic acid (TFA)) deposited on 384 well polypropylene plate. The resulting solution was mixed by aspiration, centrifuged at 931 g for 1 minute, then 1.5 μL aliquots were dispensed on pre-treated MALDI target using Beckman Coulter Biomek FX^P 96/384-Span-8 Laboratory Automation Workstation. Finally, the MALDI target was dried under a mild vacuum to produce spots with a fine crystalline structure.
Measurements: MALDI-TOF measurements were performed on Bruker Daltonics rapifleX Tissuetyper TOF-TOF mass spectrometer using linear mode and mass ranging from 16.0 to 19.6 kDa. Detector gain was set to 0.64×(459 V), sample rate to 5 GS/s, real-time smoothing to medium (175 MHz), laser smart beam pattern was set to “Custom” single smartbeam beam scan with a scan range of 40 μm on both X and Y axis, and the laser frequency was 10000 Hz. Spectra were automatically collected using the custom AutoXecute method. Laser power was auto adjusted using fuzzy control. The peak selection range was set to be between 16.0 and 18.5 kDa. Peak evaluation uses a half-width parameter set to be smaller than 40 Da for processed spectrograms (centroid peak detection; smoothed by SavitzkyGolay algorithm using 7 m/z width and 2 cycles; baseline was subtracted using a median algorithm with flatness 1 and median level 0). Fuzzy control used Proteins/Oligonucleotides protocol with minimum half-width 1/10 times above threshold. Up to 40000 satisfactory shots were collected in 10000 short steps. Dynamic termination was implemented to finish data collection when the peak signal/noise ratio was reaching a value of 1000.
Spectra processing: Spectra were smoothed by SavitzkyGolay algorithm using 7 m/z width and three cycles. Centroid peak detection algorithm was used with signal to noise threshold set to 6, relative intensity threshold 3%, peak width 10 m/z, and median baseline subtraction using flatness of 1 and the median level of 0.1. Peak intensity and area under the peak were evaluated and recorded for all peaks between 16.0 and 19.5 kDa.
Calculation of percent modification: Percent modification was calculated as a ratio of peak height for protein modified by compound to the sum of the peak height of remaining protein plus peak height for protein modified by a compound. If multiple modifications were observed each was calculated as a ratio of peak height for given modification versus the sum of peak heights for all observed protein species.

pAKT in BT474 cells = assay: Cell-based pAKT HTRF assay in BT474 cells; conditions: BT474 cells, 4 hr incubation, read-out: pAKT inhibition IC50 in BT474 cells
Procedure: On Day 1, cells were seeded into 96-well plates at 2.5×10^4 cells/well in complete growth media (DMEM, 10% FBS). On Day 2, cells were treated with compounds at 0.25% DMSO. The source plate was created with compounds diluted in media at 5-fold the final assay concentration. The compounds are run in a 9-point concentration curve starting at 3 μM, with a 3-fold dilution between concentrations. 20 μL was transferred onto the cell plates (final volume in wells was 100 μL). Plates were harvested after 4 hr incubation by aspirating media and adding kit-supplied 1× supplemented lysis buffer to all wells (75 μL per well). Plates were then placed on a plate shaker and incubated at 850 rpm for an additional 30 min. The antibody mixture solution was prepared by diluting aliquoted d2 and Eu Cryptate antibodies 1:20 in kit supplied detection buffer, then mixed the diluted antibodies solutions (1:1 v:v). 4 μL of this solution was then added to a 384-well detection plate (Perkin Elmer; 6008230). Samples were homogenized by pipetting up and down and then transferred (16 μL of cell lysates) from the 96-well cell culture plate to two wells of the HTRF 384-well detection plate containing the antibody solution. Plates were centrifuged (524 g for 1 min) and allowed to incubate between 4 and 24 h at room temperature. The maximum signal is reached after 4 h incubation time and remains stable over a period of 24 hours. Therefore, readings can be made between 4 and 24 h of incubation. Plates were centrifuged again (524 g for 1 m), and analyzed on the EnVision plate reader using the following settings: Excitation 320 nm, Bandwidth […]; Emission 615 nm, Bandwidth […], Gain 10000, Flashes 100, Lag 60 μs.

[2] = 3.33 μM protein target, 1:7.5 protein to compound ratio (compounds 1-852)
[3] = Homo sapiens, BT-474, Compounds 10-999
[4] = 1 μM protein target, 1:5 protein to compound ratio (compounds 853-1279)

Cys242 in human PIK3CA (157-299), sequence (P42336 157-299): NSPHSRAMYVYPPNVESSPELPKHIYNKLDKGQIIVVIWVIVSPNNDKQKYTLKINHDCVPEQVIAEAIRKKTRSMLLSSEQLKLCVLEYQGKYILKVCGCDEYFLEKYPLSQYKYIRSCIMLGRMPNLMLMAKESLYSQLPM

Row | SMILES | % of modification [1, 2] | IC50 (pAKT in BT474 cells; Compounds 10-999) [nM] | also measured
1 | C=CC(=O)N1Cc2cc(-c3nc(-c4ccc(P(C)(C)=O)cc4)c4ccsc4c3-c3c(F)cc(F)cc3OCCOC)nn2C[C@H]1C [Compound 800, 1-[(6R)-2-[7-[2,4-difluoro-6-(2-methoxyethoxy)phenyl]-4-(4-dimethylphosphorylphenyl)thieno[3,2-c]pyridin-6-yl]-6-methyl-6,7-dihydro-4H-pyrazolo[1,5-a]pyrazin-5-yl]prop-2-en-1-one] | A (percent of modification of PIK3CA protein ≥75%) |  | IC50 (pAKT in BT474 cells; [3]): < 100 nM
2 | C=CC(=O)N1CCn2nc(-c3nc(-c4ccc5c(c4)CNC5=O)c4ccsc4c3-c3c(F)cc(F)cc3OCCO)cc2C1C (centres unmarked) [Compound 891] |  | < 100 | % of modification [1, 4]: A (percent of modification of PIK3CA protein ≥75%)
3 | C=CC(=O)N1Cc2cc(-c3nc(-c4cn(C)cn4)c4ccsc4c3-c3c(F)cc(F)cc3OCCO)nn2[C@@H](C)C1 [Compound 819] | A (percent of modification of PIK3CA protein ≥75%) | < 100 | 
4 | C=CC(=O)N1CCc2nc(-c3nc(-c4ccc(C(C)(C)O)nc4)c4ccsc4c3-c3c(F)cc(F)cc3OCCOC)sc2C1 [Compound 445] | A (percent of modification of PIK3CA protein ≥75%) | 100 to 1000 | 
5 | C=CC(=O)N1CCc2nc(-c3nc(C4CCN(C(C)C)CC4)c4ccsc4c3-c3ccc(F)cc3OCCOC)sc2C1 [Compound 143, 1-(2-(7-(4-fluoro-2-(2-methoxyethoxy)phenyl)-4-(1-isopropylpiperidin-4-yl)thieno[3,2-c]pyridin-6-yl)-6,7-dihydrothiazolo[5,4-c]pyridin-5(4H)-yl)prop-2-en-1-one] | A (percent of modification of PIK3CA protein ≥75%) |  | IC50 (pAKT in BT474 cells; [3]): 100 to 1000 nM
6 | C=CC(=O)N1CCc2nc(-c3nc(-c4ccc5c(c4)CNC5)c4ccsc4c3-c3ccc(F)cc3OCCOC)sc2C1 [Compound 153] | A (percent of modification of PIK3CA protein ≥75%) | < 100 | 
7 | C=CC(=O)N1CCc2ccc(-c3nc(-c4cnc5c(c4)CNC(=O)C5)c4ccsc4c3-c3c(F)cc(F)cc3OC(C)C)cc2C1 [Compound 499] | A (percent of modification of PIK3CA protein ≥75%) | < 100 | 
8 | C=CC(=O)N1CCn2nc(-c3nc(-c4ccc5cnn(C)c(=O)c5c4)c4ccsc4c3-c3c(F)cc(F)cc3OCCO)cc2[C@H]1C [Compound 899] |  | < 100 | % of modification [1, 4]: A (percent of modification of PIK3CA protein ≥75%)
9 | C=CC(=O)N1Cc2cc(-c3nc(-c4cnnc(C)c4)c4ccsc4c3-c3c(F)cc(F)cc3OC[C@@H](C)O)nn2C[C@H]1C [Compound 743] | A (percent of modification of PIK3CA protein ≥75%) | < 100 | 
10 | C=CC(=O)N1CCn2nc(-c3nc(-c4ccc5c(c4)ncn5C)c4ccsc4c3-c3c(F)cc(F)cc3OCCO)cc2[C@@H]1C [Compound 664, 1-((S)-2-((S)-7-(2,4-difluoro-6-(2-hydroxyethoxy)phenyl)-4-(1-methyl-1H-benzo[d]imidazol-5-yl)thieno[3,2-c]pyridin-6-yl)-4-methyl-6,7-dihydropyrazolo[1,5-a]pyrazin-5(4H)-yl)prop-2-en-1-one] | A (percent of modification of PIK3CA protein ≥75%) | < 100 | 
11 | C=CC(=O)N1CCc2nc(-c3nc(-c4cccc(C(C)(C)O)c4)c4ccsc4c3-c3c(F)cc(F)cc3OCCOC)sc2C1 [Compound 429] | A (percent of modification of PIK3CA protein ≥75%) | 100 to 1000 | 
12 | C=CC(=O)N1CCn2nc(-c3nc(-c4ccc5c(c4)CCN(C)C5)c4ccsc4c3-c3c(F)cc(F)cc3OC(C)C)cc2[C@@H]1C [Compound 540] |  | 1000 to 3000 | 
13 | CCC(=O)N1CCn2nc(-c3nc(-c4ccc5c(c4)CCNC5=O)c4ccsc4c3-c3ccc(F)cc3OC(C)C)cc2C1 [Compound 269] |  | 100 to 1000 | 
14 | CC1c2cc(-c3nc(-c4ccc5c(cnn5C)c4)c4ccsc4c3-c3c(F)cc(F)cc3OCCO)nn2CCN1C(=O)C(O)CO (centres unmarked) [Compound 1235] |  |  | IC50 (pAKT in BT474 cells; Compounds 1000-1279): > 1000 nM
15 | C=CC(=O)N[C@H]1CCc2ccc(-c3nc(-c4ccc5c(c4)CCNC5)c4ccsc4c3-c3ccc(F)cc3OCCOC)cc21 [Compound 81] | D (percent of modification <25%) |  | 
16 | COCCOc1cc(F)ccc1-c1c(-c2ccc(OC(C)C)cc2F)nc(-c2ccc3c(c2)CCNC3)c2ccsc12 [Compound 231] |  | > 3000 | 
17 | C=CC(=O)N1CCn2nc(-c3nc(-c4ccc5c(c4)CCN(C)C5)c4ccsc4c3-c3c(F)cc(F)cc3OC(C)C)cc2[C@@H]1C [Compound 541] |  | < 100 | 
18 | COCCOc1cc(F)cc(F)c1-c1c(-c2cc3n(n2)CCN(C(=O)C(O)CO)C3C)nc(-c2ccc3c(cnn3C)c2)c2ccsc12 (centres unmarked) [Compound 1241] |  |  | IC50 (pAKT in BT474 cells; Compounds 1000-1279): > 1000 nM
19 | C=CC(=O)N1CCCc2ccc(-c3nc(-c4ccc5c(c4)CCNC5)c4ccsc4c3-c3ccc(F)cc3OCCOC)cc21 [Compound 66] | D (percent of modification <25%) |  | 
20 | CCC(=O)N1CC(n2cc(-c3nc(-c4ccc5c(c4)CCNC5)c4ccsc4c3-c3ccc(F)cc3OC)cn2)C1 [Compound 124] |  | > 3000 | 
21 | C=CC(=O)N1CCn2nc(-c3nc(-c4ccc5c(c4)CCN(C)C5)c4ccsc4c3-c3c(F)cc(F)cc3OC(C)C)cc2[C@H]1C [Compound 543] |  | < 100 | 
22 | C=CC(=O)N1CCn2nc(-c3nc(-c4ccc5c(c4)CCN(C)C5)c4ccsc4c3-c3c(F)cc(F)cc3OC(C)C)cc2[C@H]1C [Compound 542] |  | 100 to 1000 | 
23 | CCC(=O)N1CCn2nc(-c3nc(-c4ccc5c(c4)CCNC5=O)c4ccsc4c3-c3ccc(F)cc3OC(C)C)nc2C1 [Compound 260] |  | > 3000 | 
24 | C=CC(=O)N1CCc2ccc(-c3nc(-c4ccc5c(c4)CCNC5)c4ccsc4c3-c3ccc(F)cc3OCCOC)cc21 [Compound 65] | D (percent of modification <25%) |  | 
25 | CCC(=O)N1CCn2nc(-c3nc(-c4ccc5c(cnn5C)c4)c4ccsc4c3-c3c(F)cc(F)cc3OCCOC)cc2C1C (centres unmarked) [Compound 1204] |  |  | IC50 (pAKT in BT474 cells; Compounds 1000-1279): > 1000 nM
26 | CC1c2cc(-c3nc(-c4ccc5c(cnn5C)c4)c4ccsc4c3-c3c(F)cc(F)cc3OCCO)nn2CCN1C(=O)C(O)CO (centres unmarked) [Compound 1236] |  |  | IC50 (pAKT in BT474 cells; Compounds 1000-1279): > 1000 nM
27 | C=CC(=O)N1CCCC1Cn1cc(-c2nc(-c3ccc4c(c3)CCNC4)c3ccsc3c2-c2ccc(F)cc2OCCOC)cn1 (centres unmarked) [Compound 63] | A (percent of modification of PIK3CA protein ≥75%) |  | 
